Measured values: patent US20230374015A1, “INHIBITORS OF FIBROBLAST GROWTH FACTOR RECEPTOR KINASES” (Kinnate Biopharma Inc., priority 2020, published 2023)

What was measured:
FGFR2 [1] = target: T1, FGFR2 (Homo sapiens, UniProt P21802); experiment: FGFR2 Kinase Protocol - Condition 1 (Reaction Biology HotSpot radiometric kinase assay); assay type: biochemical; conditions: 20-min incubation of compound with kinase before ATP; poly[Glu:Tyr] (4:1) 0.2 mg/ml; ATP 100 micromolar; 2 hr room temperature
Experimental: Example 1: FGFR2 Kinase Protocol—Condition 1
The Reaction Biology HotSpot assay platform (http://www.reactionbiology.com) was used to measure kinase/inhibitor interactions as described previously (Anastassiadis et al., 2011). In brief, for each reaction, kinase and substrate were mixed in a buffer containing 20 mM HEPES (pH 7.5), 10 mM MgCl2, 1 mM EGTA, 0.02% Brij35, 0.02 mg/mL BSA, 0.1 mM Na3VO4, 2 mM DTT, and 1% DMSO. All compounds were in powder form and freshly solubilized in DMSO for assays. Compounds were then added to each reaction mixture via acoustic dispense using an ECHO 550 nanoliter dispenser. For Human FGFR2 wildtype testing, a peptide substrate, poly[Glu:Tyr] (4:1) was used to promote the reaction at a concentration of 0.2 mg/ml. For Human FGFR2 (V564F) testing, a peptide substrate, poly[Glu:Tyr] (4:1) was used to promote the reaction at a concentration of 0.2 mg/ml. ATP concentration for all assays was maintained at 100 micromolar. Compounds were tested in 10-dose IC50 mode with a 3-fold serial dilution. After a 20-min incubation, ATP (Sigma-Aldrich, St. Louis, MO 63178) and [g33P] ATP (specific activity 10 microCi/microliter) purchased at PerkinElmer (Boston, MA, 02118 Cat #BLU 003H250UC) were added at a final total concentration of […]. Reactions were carried out at room temperature for 2 hr and spotted onto P81 ion exchange cellulose chromatography paper (Reaction Biology). Filter paper was washed in 0.75% phosphoric acid to remove unincorporated ATP. The percent remaining kinase activity relative to a vehicle-containing (DMSO) kinase reaction was calculated for each kinase/inhibitor pair. IC50 values were calculated using Dotmatics Knowledge Solutions Studies curve fitting (Dotmatics, Bishops Stortford, UK, CM23).

FGFR2 [2] = target: T1, FGFR2; experiment: FGFR2 Kinase Protocol - Condition 2 (Reaction Biology HotSpot radiometric kinase assay, no preincubation); assay type: biochemical; conditions: poly[Glu:Tyr] (4:1) 0.2 mg/ml, ATP 100 microM, 2 hr room temperature
In short: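 Radiometric HotSpot format: FGFR2 (wildtype or V564F) with poly[Glu:Tyr] (4:1) at 0.2 mg/ml in HEPES pH 7.5 buffer with 1% DMSO; ATP plus [γ33P]ATP at 100 µM total, added without preincubation. Reactions ran 2 hr at room temperature, then filter-bound. IC50 from 10-dose, 3-fold series versus DMSO control.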

T1 sequence (P21802 22-821): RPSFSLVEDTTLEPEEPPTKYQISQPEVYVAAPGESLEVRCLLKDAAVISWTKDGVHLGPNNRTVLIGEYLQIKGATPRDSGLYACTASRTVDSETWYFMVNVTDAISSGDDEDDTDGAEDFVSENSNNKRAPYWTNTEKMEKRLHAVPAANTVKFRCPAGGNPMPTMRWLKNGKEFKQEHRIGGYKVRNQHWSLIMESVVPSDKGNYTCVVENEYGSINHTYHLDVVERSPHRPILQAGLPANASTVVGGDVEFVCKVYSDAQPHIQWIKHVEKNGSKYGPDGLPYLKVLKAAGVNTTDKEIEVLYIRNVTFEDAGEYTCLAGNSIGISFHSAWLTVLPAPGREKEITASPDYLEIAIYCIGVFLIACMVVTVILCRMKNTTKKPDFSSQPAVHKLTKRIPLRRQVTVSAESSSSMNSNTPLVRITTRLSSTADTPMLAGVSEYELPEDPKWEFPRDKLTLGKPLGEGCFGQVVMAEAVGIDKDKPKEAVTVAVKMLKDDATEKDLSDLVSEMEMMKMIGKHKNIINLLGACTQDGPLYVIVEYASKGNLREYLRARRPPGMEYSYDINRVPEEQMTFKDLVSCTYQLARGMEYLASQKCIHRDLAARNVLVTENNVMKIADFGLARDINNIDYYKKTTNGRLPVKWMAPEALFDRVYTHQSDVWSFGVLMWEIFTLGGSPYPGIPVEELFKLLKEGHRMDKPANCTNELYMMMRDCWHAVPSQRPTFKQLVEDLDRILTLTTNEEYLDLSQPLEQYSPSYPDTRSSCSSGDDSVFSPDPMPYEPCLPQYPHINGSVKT

Row | IC50 (FGFR2 [1]) [nM] | IC50 (FGFR2 [2]) [nM] | Structure (SMILES)
1 | ≤ 100 | ≤ 100 | C=CC(=O)N1C[C@@H](n2nc(C#Cc3ccc4c(c3)nc(C)n4C)c3c(N)ncnc32)C[C@@H]1COC [Example 3, 1-((2R,4S)-4-(4-amino-3-((1,2-dimethyl-1H-benzo[d]imidazol-5-yl)ethynyl)-1H-pyrazolo[3,4-d]pyrimidin-1-yl)-2-(methoxymethyl)pyrrolidin-1-yl)prop-2-en-1-one]
2 | ≤ 100 | ≤ 100 | C=CC(=O)N1C[C@@H](n2nc(C#Cc3c(F)cc4c(nc(C)n4C)c3F)c3c(N)ncnc32)C[C@@H]1COC [Example 12, 1-((2R,4S)-4-(4-amino-3-((4,6-difluoro-1,2-dimethyl-1H-benzo[d]imidazol-5-yl)ethynyl)-1H-pyrazolo[3,4-d]pyrimidin-1-yl)-2-(methoxymethyl)pyrrolidin-1-yl)prop-2-en-1-one]
3 | ≤ 100 | ≤ 100 | C=CC(=O)N1C[C@@H](n2nc(C#Cc3c(F)cc4c(nc(C)n4C)c3F)c3c(N)nccc32)C[C@@H]1COC [Example 16, 1-((2R,4S)-4-(4-amino-3-((4,6-difluoro-1,2-dimethyl-1H-benzo[d]imidazol-5-yl)ethynyl)-1H-pyrazolo[4,3-c]pyridin-1-yl)-2-(methoxymethyl)pyrrolidin-1-yl)prop-2-en-1-one]
4 | ≤ 100 | – | C=CC(=O)N1C[C@@H](n2nc(C#Cc3ccc4c(c3)nc(C)n4C)c3c(N)nccc32)C[C@@H]1COC [Example 25, 1-((2R,4S)-4-(4-amino-3-((1,2-dimethyl-1H-benzo[d]imidazol-5-yl)ethynyl)-1H-pyrazolo[4,3-c]pyridin-1-yl)-2-(methoxymethyl)pyrrolidin-1-yl)prop-2-en-1-one]
5 | ≤ 100 | – | C=CC(=O)N1C[C@@H](n2nc(C#Cc3c(F)cc4c(ncn4C)c3F)c3c(N)nccc32)C[C@@H]1COC [Example 26, 1-((2R,4S)-4-(4-amino-3-((4,6-difluoro-1-methyl-1H-benzo[d]imidazol-5-yl)ethynyl)-1H-pyrazolo[4,3-c]pyridin-1-yl)-2-(methoxymethyl)pyrrolidin-1-yl)prop-2-en-1-one]
6 | ≤ 100 | – | C=CC(=O)N1C[C@@H](n2cc(C#Cc3ccc4c(c3)ncn4C)c3c(N)nccc32)C[C@@H]1COC [Example 27, 1-((2R,4S)-4-(4-amino-3-((1-methyl-1H-benzo[d]imidazol-5-yl)ethynyl)-1H-pyrrolo[3,2-c]pyridin-1-yl)-2-(methoxymethyl)pyrrolidin-1-yl)prop-2-en-1-one]
7 | 1000 to 10000 | 1000 to 10000 | C=CC(=O)N1C[C@@H](n2cc(C#Cc3ccc4nc(C)n(C)c4c3)c3c(N)nccc32)C[C@@H]1COC [Example 28]
8 | ≤ 100 | 100 to 1000 | C=CC(=O)N1C[C@@H](n2cc(C#Cc3ccc4c(c3)nc(C)n4C)c3c(N)nccc32)C[C@@H]1COC [Example 29, 1-((2R,4S)-4-(4-amino-3-((1,2-dimethyl-1H-benzo[d]imidazol-5-yl)ethynyl)-1H-pyrrolo[3,2-c]pyridin-1-yl)-2-(methoxymethyl)pyrrolidin-1-yl)prop-2-en-1-one]
9 | ≤ 100 | 100 to 1000 | C=CC(=O)N1C[C@@H](n2cc(C#Cc3ccc4c(c3)ncn4C3CC3)c3c(N)nccc32)C[C@@H]1COC [Example 30, 1-((2R,4S)-4-(4-amino-3-((1-cyclopropyl-1H-benzo[d]imidazol-5-yl)ethynyl)-1H-pyrrolo[3,2-c]pyridin-1-yl)-2-(methoxymethyl)pyrrolidin-1-yl)prop-2-en-1-one]
10 | ≤ 100 | 100 to 1000 | C=CC(=O)N1C[C@@H](n2cc(C#Cc3ccc4c(c3)ncn4CC)c3c(N)nccc32)C[C@@H]1COC [Example 31, 1-((2R,4S)-4-(4-amino-3-((1-ethyl-1H-benzo[d]imidazol-5-yl)ethynyl)-1H-pyrrolo[3,2-c]pyridin-1-yl)-2-(methoxymethyl)pyrrolidin-1-yl)prop-2-en-1-one]
